Consider eleven compounds from US20240226098A1, “COMPOUNDS AND METHODS FOR MODULATING SPLICING” (REMIX THERAPEUTICS INC., priority 2020, published 2024).

Molecules are shown by their SMILES.

As a reminder, the AC50 is the concentration giving half of the maximal activity seen. The IC50 is the concentration needed to halve the response being measured.

Common to all, as to format: cell-based
In test [1] the test system is HTT mRNA, alternative junction (AJ). Nature of the test: Splicing assay (RT-qPCR): increase in HTT alternative junction (AJ) mRNA. The settings on record: A673 or K562 cell line, 24 hours treatment, top dose 10 uM; concentration having 50% response in AJ increase. The gist of the method:
(§1)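 A673 (DMEM, 10% FBS) or K562 (IMDM, 10% FBS) cells treated 24 h at 37 °C with 11-point 3-fold dilutions, top 10 uM, ≤0.25% DMSO. Lysates analysed by one-step RT-qPCR for HTT CJ and AJ isoforms. Normalised to PPIA (A673) or GAPDH/GUSB (K562).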
In general terms: In qPCR the cycle at which signal appears reflects the starting amount.

The test system of the next test is HTT CJ mRNA. In words: Gene panel canonical junction qPCR assay: decrease in HTT CJ mRNA. The note with it: protocol as for Table 2, read-out: HTT (IC50, decrease in CJ mRNA levels). The essentials:
(§2)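 A673 or K562 cells were treated 24 h at 37 °C with an 11-point 3-fold dilution series (top dose 10 uM final, DMSO ≤0.25%). Lysates went to RT-qPCR for the canonical exon-exon junction transcript, normalized to GAPDH, GUSB or PPIA. Levels were taken as ΔΔCt versus DMSO control and converted to RQ via 2^(−ΔΔCt).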

The subject of another test is SMN2 CJ mRNA. Nature of the test: Gene panel canonical junction qPCR assay: decrease in SMN2 CJ mRNA. The settings on record: protocol as for Table 2, read-out: SMN2 (IC50, decrease in CJ mRNA levels). The essentials:
as §2

Another test has as its system Target C CJ mRNA. Nature of the test: Gene panel canonical junction qPCR assay: decrease in Target C CJ mRNA. The settings on record: protocol as for Table 2, read-out: Target C (IC50, decrease in CJ mRNA levels). The gist of the method: as §2
Test [2] relates to HTT mRNA, canonical junction (CJ). Nature of the test: Splicing assay (RT-qPCR): decrease in HTT canonical junction (CJ) mRNA. The note with it: A673 or K562 cell line, 24 hours treatment, top dose 10 uM; concentration having 50% response in CJ decrease. The essentials:
as §1

For the compound `Cc1cn2cc(NC(=O)c3ccc(N4CCC(N(C)C)C4)c4ccnnc34)cc(F)c2n1` (stereo not shown) [Compound 134, 5-[3-(dimethylamino)pyrrolidin-1-yl]-N-[8-fluoro-2-methylimidazo[1,2-a]pyridin-6-yl]cinnoline-8-carboxamide], the AC50 in test [1] and in test [2] was 1000 to 10000 nM throughout. Further, the half-maximal inhibitory concentration (IC50) with HTT CJ mRNA was 1000 to 10000 nM; with SMN2 CJ mRNA it was < 100 nM; with Target C CJ mRNA it was 1000 to 10000 nM.
Consider `Cc1cn2cc(NC(=O)c3ccc(N4CCC(N(C)C)CC4)c4ccnnc34)cc(F)c2n1` [Compound 137, 5-[4-(dimethylamino)piperidin-1-yl]-N-[8-fluoro-2-methylimidazo[1,2-a]pyridin-6-yl] cinnoline-8-carboxamide], for which the AC50 in test [1] and in test [2] was 100 to 1000 nM each time. The results for the half-inhibitory concentration (IC50) in the test with HTT CJ mRNA, in the test with SMN2 CJ mRNA and with Target C CJ mRNA were 100 to 1000 nM, < 100 nM and 100 to 1000 nM, respectively.
Turning to `Cc1cn2cc(NC(=O)c3ccc(N4CCC(NC(C)(C)C)CC4)c4ccnnc34)cc(F)c2n1` [Compound 138, 5-[4-(tert-butylamino)piperidin-1-yl]-N-[8-fluoro-2-methylimidazo[1,2-a]pyridin-6-yl]cinnoline-8-carboxamide], the concentration at half-maximal activity (AC50) in test [1] and in test [2] was 1000 to 10000 nM in each case. For the same compound, the IC50 in the test with HTT CJ mRNA is 1000 to 10000 nM; with SMN2 CJ mRNA, < 100 nM; with Target C CJ mRNA, 1000 to 10000 nM.
Consider `Cc1cn2cc(NC(=O)c3ccc(C4CCN(C)CC4)c4ccnnc34)cc(F)c2n1` [Compound 140, N-[8-fluoro-2-methylimidazo[1,2-a]pyridin-6-yl]-5-(1-methylpiperidin-4-yl) cinnoline-8-carboxamide], for which the concentration at half-maximal activity (AC50) in test [1] and in test [2] was 1000 to 10000 nM each time. The IC50 is 1000 to 10000 nM in the test with HTT CJ mRNA, < 100 nM in the test with SMN2 CJ mRNA and > 10000 nM in the test with Target C CJ mRNA.
Regarding `CCN1CCC(c2ccc(C(=O)Nc3cc(F)c4nc(C)cn4c3)c3nnccc23)CC1` [Compound 141, 5-(1-ethylpiperidin-4-yl)-N-[8-fluoro-2-methylimidazo[1,2-a]pyridin-6-yl] cinnoline-8-carboxamide], the AC50 in test [1] and in test [2] was 1000 to 10000 nM each time. The IC50 is 1000 to 10000 nM in the test on HTT CJ mRNA, < 100 nM in the test on SMN2 CJ mRNA and 1000 to 10000 nM with Target C CJ mRNA.
Regarding `Cc1cn2cc(NC(=O)c3ccc(N4C[C@H]5C[C@@H]4C5N(C)C)c4ccnnc34)cc(F)c2n1` (stereo partly drawn) [Compound 148, 5-[(1R,4R)-5-(dimethylamino)-2-azabicyclo [2.1.1]hexan-2-yl]-N-[8-fluoro-2-methylimidazo[1,2-a]pyridin-6-yl] cinnoline-8-carboxamide], the AC50 in test [1] and in test [2] was 1000 to 10000 nM each time. Further, the half-maximal inhibitory concentration (IC50) in the test with HTT CJ mRNA, in the test on SMN2 CJ mRNA and in the test on Target C CJ mRNA was 1000 to 10000 nM in each case.
Consider `Cc1cn2cc(NC(=O)c3ccc(N4C[C@H]5C[C@@H]4C5N(C)C)c4ccnnc34)cc(F)c2n1` (stereo partly shown) [Compound 155], for which the half-maximal activity concentration (AC50) in test [1] and in test [2] was > 10000 nM in each case. The half-maximal inhibitory concentration (IC50) is > 10000 nM in the test on HTT CJ mRNA, 100 to 1000 nM with SMN2 CJ mRNA and > 10000 nM in the test with Target C CJ mRNA.
Turning to `Cc1cn2cc(NC(=O)c3ccc(N(C)[C@@H]4C[C@H]5CC[C@@H](C4)N5)c4ccnnc34)cc(F)c2n1` [Compound 156, 5-[(exo)-8-azabicyclo[3.2.1]octan-3-yl(methyl)amino]-N-[8-fluoro-2-methylimidazo[1,2-a]pyridin-6-yl]cinnoline-8-carboxamide], the concentration at half-maximal activity (AC50) in test [1] and in test [2] was > 10000 nM in each case. Besides, the IC50 with HTT CJ mRNA was > 10000 nM; in the test on SMN2 CJ mRNA, 100 to 1000 nM; in the test with Target C CJ mRNA it was > 10000 nM.
Consider `Cc1cn2cc(NC(=O)c3ccc(N4CCNC(C)C4)c4nccnc34)cc(F)c2n1` (stereo not shown) [Compound 157, N-[8-fluoro-2-methylimidazo[1,2-a]pyridin-6-yl]-8-(3-methylpiperazin-1-yl)quinoxaline-5-carboxamide], for which the concentration at half-maximal activity (AC50) in test [1] and in test [2] was 100 to 1000 nM throughout. In addition, the half-inhibitory concentration (IC50) in the test with HTT CJ mRNA was 100 to 1000 nM; in the test with SMN2 CJ mRNA, < 100 nM; in the test on Target C CJ mRNA, 1000 to 10000 nM.
Consider `Cc1cn2cc(NC(=O)c3ccc(N4CCC(N(C)C)CC4)c4nccnc34)cc(F)c2n1` [Compound 158, 8-[4-(dimethylamino)piperidin-1-yl]-N-[8-fluoro-2-methylimidazo[1,2-a]pyridin-6-yl] quinoxaline-5-carboxamide], for which the AC50 in test [1] and in test [2] was 100 to 1000 nM throughout. Moreover, the results for the IC50 in the test on HTT CJ mRNA, in the test on SMN2 CJ mRNA and in the test on Target C CJ mRNA were 100 to 1000 nM, < 100 nM and 1000 to 10000 nM, respectively.
As to `Cc1cc2c(N3CCNCC3)ccc(C(=O)Nc3cc(F)c4nc(C)cn4c3)c2nn1` [Compound 159], the AC50 in test [1] and in test [2] was 100 to 1000 nM each time. Moreover, the values for the IC50 in the test on HTT CJ mRNA, with SMN2 CJ mRNA and in the test with Target C CJ mRNA were 100 to 1000 nM, < 100 nM and 1000 to 10000 nM, respectively.
